US20150329883A1 (Samsung Electronics Co., Ltd., priority 2014, published 2015)
In brackets after ≈: the same amount, converted by molar mass. Several values for one entry are separate records, joined by “and”; a condition that tells them apart may be missing. Equal values may be shown once. Read-outs that look alike come from different tables or passages of the source.

How the values were obtained:
[1] = system: Corynebacterium S003 strain (Δldh, Δpta-ackA, ΔpoxB, and ΔactA); assay: microbe, parasite or virus in culture; conditions: for IC50: Corynebacterium
Method: In particular, for a seed culture, the strain was streaked on an active plate including agar 5 g/L of yeast extract, 10 g/L of beef extract, 10 g/L of polypeptone, 5 g/L of NaCl, and 20 g/L of agar, and then cultured at a temperature of 30° C. for about 48 hours. A single colony obtained therefrom was inoculated in 5 ml of a BHIS medium (including 37 g/L of brain-heart infusion agar, 91 g/L of D-sorbitol, pH 7.0) and grown overnight at a temperature of 30° C.
1 ml of the obtained culture solution was inoculated in a 25 ml of BHIS in a 250 ml flask and grown until an OD600 value was 5.0. The culture solution was centrifuged, a supernatant thereof was removed to collect the microorganism only, and the microorganism was washed with CGXII minimal medium. The CGXII minimal medium includes 20 g/L of (NH4)2SO4, 5 g/L of urea, 1 g/L of KH2PO4, 1 g/L of K2HPO4, 0.25 g/L of MgSO4.7H2O, 10 mg/L of CaCl2, 10 mg/L of FeSO4.7H2O, 0.1 mg/L of MnSO4.H2O, 1 mg/L of ZnSO4.7H2O, 0.2 mg/L of CuSO4.5H2O, […], 0.2 mg/L of biotin, 42 g/L of 3-morpholinopropanesulfonic acid (MOPS), and 4% (w/v) of glucose.

[2] = system: S003/pGEX4-NCgl0275 strain; assay: microbe, parasite or virus in culture
Description: A strain that overexpresses the fourteen SRGs was obtained by cloning the SRGs to Xhol/BamHI restriction site of a pGEX-4 vector to be expressed under an influence of a Ptuf promoter as described in “2. Preparation of pGEX_Ptuf::Ncgl1853, Ncgl1855, Ncgl2988, Ncgl2425, Ncgl2404, Ncgl0368, Ncgl2877, Ncgl0275, Ncgl2359, Ncgl1525, Ncgl0976, Ncgl2673, Ncgl2297, and Ncgl1524 vector” under “Material and Method”, and then introducing each of the vectors thus obtained to a Corynebacterium glutamicum S003 strain.

[3] = system: Corynebacterium glutamicum S003 strain; conditions: 0.0625 M succinic acid, anaerobic, 5 hours, vs control without succinic acid
Method: After isolating total RNA from the cultured cells by using RNeasy midi kit (Qiagen), a transciptome was analyzed by using a Corynebacterium glutamicum ATCC 13032, 3×20K chip microarray (MYcroarray.com) according the protocol of the same manufacturer. 6134 unique probes are immobilized on the chip, where each of the probes is a three-times repeat.

[4] = 0.25 M succinic acid, anaerobic, S003 strain

**Q.** For `O=C(O)CCC(=O)O` [succinic acid], which “glucose uptake rate compared with control group” value ([1]; 0.0625 M succinic acid, after 15 hours) is on record?
**A.** the same

**Q.** And the glucose uptake ([1]; 0.0625 M succinic acid, within the first 5 hours)?
**A.** suppressed

**Q.** What about the “decrease of glucose uptake rate” value [1, 4] of the same compound?
**A.** about 66.4%

**Q.** And the succinic acid production [1, 4]?
**A.** almost not produced

**Q.** What about the IC50 ([1]; read-out: IC50 value of the glucose uptake rate) of the same compound?
**A.** 13 mg/mL (≈ 110 mM)

**Q.** What about the IC50 ([1]; read-out: IC50 value of the succinic acid production) of the same compound?
**A.** 100 mM and 11800 µg/mL

**Q.** And the IC50 ([2]; Corynebacterium glutamicum, read-out: IC50 value of the glucose uptake rate)?
**A.** 70.8 mg/mL (≈ 600 mM)

**Q.** What about the “increase of IC50 compared to the control group” value ([2]; S003/pGEX4-NCgl0275 strain vs control) of the same compound?
**A.** about 5.45 fold

**Q.** What about the “Fold of reduction of expression, Ncgl0275 (whiB4)” value [3] of the same compound?
**A.** 1.56 fold

**Q.** What about the “Fold of reduction of expression, Ncgl0368” value [3] of the same compound?
**A.** 1.60 fold

**Q.** What about the “Fold of reduction of expression, Ncgl1524 (tpi/tpiA)” value [3] of the same compound?
**A.** 1.700 fold

**Q.** What about the “Fold of reduction of expression, Ncgl1853 (nrdR)” value [3] of the same compound?
**A.** 4.24 fold

**Q.** And the “Fold of reduction of expression, Ncgl1855 (lexA)” value [3]?
**A.** 2.44 fold

**Q.** And the “Fold of reduction of expression, Ncgl2297 (mdh)” value [3]?
**A.** 1.700 fold

**Q.** What about the “Fold of reduction of expression, Ncgl2359” value [3] of the same compound?
**A.** 1.52 fold

**Q.** And the “Fold of reduction of expression, Ncgl2404” value [3]?
**A.** 1.73 fold

**Q.** And the “Fold of reduction of expression, Ncgl2425” value [3]?
**A.** 1.74 fold

**Q.** What about the “Fold of reduction of expression, Ncgl2673 (fda)” value [3] of the same compound?
**A.** 1.820 fold

**Q.** And the “Fold of reduction of expression, Ncgl2877” value [3]?
**A.** 1.57 fold

**Q.** And the “Fold of reduction of expression, Ncgl2988 (parB)” value [3]?
**A.** 1.91 fold

**Q.** What about the “reduction of expression of nine expected transcription regulator genes (NCgl1853, NCgl1855, NCgl0368, NCgl0275, NCgl2359, NCgl2404, NCgl2425, NCgl2988, NCgl2877)” value [3] of the same compound?
**A.** ≥ 1.5 fold
